Common to all, as to assay type: cell-based, human
One data set relates to CCR5 gene. The data set can be described thus: CCR5 deletion frequency by ddPCR in edited CD34+ cells. From the text:
The C-C chemokine receptor type 5 (CCR5) is a key player in HIV infection due to its major involvement in the infection process. A limited number of people harbor a genomic 32-bp deletion in the CCR5 gene ([…]), leading to expression of a truncated gene product that provides resistance to HIV-1 infection in individuals homozygous for this mutation. Dual gRNAs were designed to target this region of the CCR5 gene. FIG. 8 diagrams the CCR5 gene and the location of TB48 gRNA and TB7 gRNA target sites (bordering a 735 bp deletion).
Human peripheral blood CD34+ cells were cultured and as electroporated with Cas9 and the two gRNAs essentially as described above in Example 1. Nu7441 was delivered to the cells (0, 1.25, 2.5, 5 μM) immediately after electroporation. Deletion efficiency was determined by ddPCR two days after electroporation.
Additional gRNAs were designed to delete larger segments from CCR5, i.e., TB74 and TB 25 for a 5700 bp deletion, and TB48 and TB25 for a 2672 bp deletion (FIG. 10). The gRNAs (and Cas9) were introduced at two dose levels (0.75 or 1.5 μg each) and cells were exposed to 0, 2.5, or 5 μM Nu7441.
Another DNA-PK inhibitor, M3814, was tested to determine whether deletions were increased in its presence. Populations of newly electroporated cells were exposed to four concentrations of M3814 ranging from 0.078 μM to 0.625 μM.

Data set [1] deals with CD34+ hHSPCs. The data set can be described thus: Cell viability by Trypan blue. The method, then: Cell viability was also assessed using Trypan blue, a standard method for detecting hematopoietic stem cell viability.
For data set [2], the system named is HPFH5. The data set can be described thus: HPFH5 deletion frequency by droplet digital PCR (ddPCR) in edited CD34+ hHSPCs. Particulars: increased from 30% without inhibitor, dose-dependent, 0.3125-5 μM; Cas9 + dual gRNAs; 48 hours post electroporation. The method, then: Mobilized human peripheral blood (mPB) CD34+ cells from three independent human donors were cultured in serum free CellGro® media including 100 ng/ml recombinant human stem cell factor (SCF), 100 ng/ml recombinant human Flt 3-Ligand (FLT3L), and 100 ng/ml Thrombopoietin (TPO). 100,000 cells per condition were electroporated using Lonza Amaxa 4D electroporator without any CRISPR/Cas9 editing components as a negative control (mock electroporation sample), with HPFH5-1+HPFH5-D sgRNAs and Cas9 protein (1+D), or with HPFH5-5+HPFH5-D sgRNAs and Cas9 protein (5+D). The recombinant S. pyogenes Cas9 protein was flanked by two SV40 nuclear localization sequences (NLSs). These experiments were performed using a ribonucleoprotein (RNP) 1:1 weight ratio of gRNA to Cas9.
The deletion frequency was determined by droplet digital PCR (ddPCR) two days after electroporation for each cell population (i.e., mock, 1+D, and 5+D).
Dual gRNAs (HPFH5-1 and HPFH-D, or HPFH5-5 and HPFH-D), as well as Cas9 protein, were also titrated in CD34+ hHSPCs. […]
The deletion frequency was determined by droplet digital PCR (ddPCR) two days after electroporation for each of the cells electroporated with HPFH5-1+HPFH5-D gRNAs, or cells electroporated with HPFH5-5+HPFH5-D gRNAs.

Data set [3] has as its system HPFH5. The experiment in a line: Colony forming assay (CFU), clonal editing analysed by ddPCR. The method, then:
The effects of Nu7441 on CRISPR-Cas9 gene editing using the dual gRNA approach (HPFH5-1 and HPFH5-D) was measured using a colony forming assay (CFU). CFU assay is an in vitro cellular assay that measures the proliferation and differentiation potential of human HSPCs. Following electroporation with dual gRNAs/Cas9 and treatment with Nu7441 (2.5 μM), CD34+ hHSPCs were diluted and plated in suspension in the presence of methylcellulose to promote stem cell differentiation. After 14 days, colonies grown from single erythroid-lineage HSPCs were analyzed for gene editing by ddPCR (Table 3).

For data set [4], the system named is HPFH5. The data set can be described thus: Tracking of Indels by Decomposition (TIDE), single gRNA indel and MMEJ species. The method, then: Tracking of Indels by Decomposition (TIDE) was utilized to determine if treatment with Nu7441 results in increased single gRNA indels as a result of NHEJ inhibition. This technology precisely determines the spectrum and frequency of indels and MMEJ species generated by single HPFH5-1 gRNA or HPFH5-D gRNAs in the presence of Nu7441 by comparing the results of standard PCR reactions and Sanger sequencing reactions. Cells were electroporated with 1.5 μg Cas and 1.5 μg HPFH5-D or 1.5 μg HPFH5-1 or no gRNA. Cells were treated with 0, 0.625 μM, 1.25 μM, 2.5 μM, or 5 μM Nu7441.

For data set [5], the system named is CD34+ hHSPCs. The experiment in a line: Cell proliferation (fold growth) by hemocytometer counting. The method, then:
Cell proliferation was also assessed using a cell counting device (hemocytometer).

In data set [6] the test system is HPFH5. The experiment in a line: Single gRNA and Cas9 titration, single guide editing percentage in CD34+ hHSPCs. Particulars: 48 hour post-electroporation. The source says: Single HPFH5-1, HPFH5-5 and HPFH5-D gRNAs, as well as Cas9 protein, were titrated in CD34+ hHSPCs to determine the effects on deletion efficiency.
Where [7] appears, read: HPFH5-1 + HPFH5-D gRNAs/Cas9 + 2.5 μM Nu7441.
Setting [8] is: HPFH5-1 + HPFH5-D gRNAs/Cas9 + 2.5 μM Nu7441, colonies after 14 days.

“And” between values parts separate entries of the source, which are not always exact repeats. Equal entries are not always repeated.

Data on five molecules can be found in patent publication US11833225B2, “Methods and compositions for efficient gene deletion” (CRISPR Therapeutics AG, priority 2018, dated 2023).

Take `COc1ccc([C@@H](O)c2cc(-c3ncnc4cc(N5CCOCC5)ccc34)c(F)cc2Cl)nn1` [M3814, (S)-(2-chloro-4-fluoro-5-(7-morpholinoquinazolin-4-yl)phenyl)(6-methoxypyridazin-3-yl)methanol]: the “percentage of deletions in CCR5” value with CCR5 gene (four concentrations from 0.078 μM to 0.625 μM, TB74+TB25 or TB48+TB25 gRNAs, 48 hours post electroporation) is given as “increased in a dose-dependent manner”. Moreover, the “percentage increase in deletions in CCR5 compared with Nu7441” value with CCR5 gene (highest concentration (0.625 μM)) is listed as “about the same percentage increase in deletions as Nu7441”.
With `O=c1cc(N2CCOCC2)oc2c(-c3cccc4c3sc3ccccc34)cccc12` [Nu7441, 8-(4-dibenzothienyl)-2-(4-morpholinyl)-4H-1-benzopyran-4-one], in the data set on CD34+ hHSPCs [1] (CCR5 editing with TB48 + TB7 gRNAs, highest concentration (5 μM)), the cell viability entry is on record as “decreased slightly”. In addition, the cell viability entry in the data set on CD34+ hHSPCs [1] (concentrations of less than 5 μM, 48 hours post electroporation, HPFH5 dual gRNAs) is “did not adversely affect cell viability”. The cell viability entry in the data set on CD34+ hHSPCs [1] (highest dose 5 μM, HPFH5 dual gRNAs) was “slightly reduced”. For the same molecule, the “frequency of deletion in CCR5” value with CCR5 gene (TB48 + TB7 gRNAs (735 bp deletion), 0, 1.25, 2.5, 5 μM, two days after electroporation) is listed as “increased the frequency of deletion in CCR5 in a dose-dependent manner”. Moreover, the “increase of percent of deletions in CCR5” value in the data set with CCR5 gene (TB48 + TB7 gRNAs, highest dose (5 μM)) is “more than two-fold”. For the same molecule, the “increase of the percent of deletions in CCR5” value with CCR5 gene (TB74 + TB25 (5700 bp) and TB48 + TB25 (2672 bp) gRNAs, 0.75 or 1.5 μg each, 2.5 or 5 μM, all conditions) was 20-70%. The “HPFH5 deletion efficiency reached with Nu7441” value in the data set with HPFH5 [2] was 45% and 40%. Besides, in the data set on HPFH5 [3] (2.5 μM Nu7441), the “increase of percentage of HPFH5 heterozygotes relative to untreated cells” value is on record as 3 fold. In addition, in the data set on HPFH5 [3] (setting [7]), the “% Alleles edited from clones” value was determined as 40%, the “% Edited cells” value stood at 63% and the “Bulk editing from ddPCR” value worked out at 43%. Further, in the data set with HPFH5 [3] (setting [8]), the “% Heterozygotes” value stood at 46.2%, the “% Homozygotes” value is recorded as 17.3% and the “% WT” value was 36.5%. Besides, in the data set with HPFH5 [3] (HPFH5-1 + HPFH5-D gRNAs/Cas9 + 2.5 μM Nu7441, of 104 total alleles (52 clones)), the “# Edited alleles” value was found to be 42. Also, the “increase of number of alleles edited from clones” value in the data set with HPFH5 [3] (in the presence of Nu7441 (2.5 μM)) turned out to be 2 fold. In addition, the “potential microhomology-mediated end joining (MMEJ) species” value in the data set with HPFH5 [4] (Cas9 and HPFH5 gRNA) is recorded as “increased”. In addition, the “effect on single guide editing (indel frequency)” value in the data set with HPFH5 [4] (HPFH5-1 gRNA 1.5 μg + Cas9 1.5 μg, 0.625-5 μM) is listed as “not major effects”. The “effect on indel frequency” value in the data set on HPFH5 [4] (HPFH5-D gRNA 1.5 μg + Cas9 1.5 μg, higher concentrations) was “increased indel frequency”. Also, in the data set with HPFH5 [4] (HPFH5-D gRNA, 5 μM), the “number of wild-type sequences in HPFH5 relative to untreated cells” value was “decrease” and the “percentage of 10-15 base pair deletions relative to untreated cells” value is “increase”. In the data set with CD34+ hHSPCs [5] (concentrations of less than 5 μM, 48 hours post electroporation), the “cell proliferation (fold growth)” value is reported as “did not adversely affect cell proliferation”. The cell proliferation result with CD34+ hHSPCs [5] (highest concentration (5 μM)) was “reduced”.

B1: HPFH5-D: 5′ gRNA targeting the HPFH5 locus, SEQ ID NO: 6, used with Cas9 protein (nucleic acid)
guide: CUGUUGGUUUCAGAGCAGGUGUUUUAGAGCUAGAAAUAGCAAGUUAAAAUAAGGCUAGUCCGUUAUCAACUUGAAAAAGUGGCACCGAGUCGGUGCUUUU
modifications: listed as RNA, chemistry not given here
On to B1, for which the “% Single Guide Editing” value in the data set on HPFH5 [6] (gRNA 1 μg, Cas9 1 μg) turned out to be 20.8%; in the data set on HPFH5 [6] (gRNA 2 μg, Cas9 2 μg), 61.4%; in the data set on HPFH5 [6] (gRNA 3 μg, Cas9 3 μg), 70.9%; in the data set on HPFH5 [6] (gRNA 4 μg, Cas9 4 μg), 80.4%.

B2: HPFH5-5: 3′ gRNA targeting the HPFH5 locus, SEQ ID NO: 4, used with Cas9 protein (nucleic acid)
guide: CUCCCCCACUCACAGUGACCGUUUUAGAGCUAGAAAUAGCAAGUUAAAAUAAGGCUAGUCCGUUAUCAACUUGAAAAAGUGGCACCGAGUCGGUGCUUUU
modifications: listed as RNA, chemistry not given here
Regarding B2, the “% Single Guide Editing” value with HPFH5 [6] (gRNA 1 μg, Cas9 1 μg) is recorded as 40.5%; with HPFH5 [6] (gRNA 2 μg, Cas9 2 μg) it was 56.5%; with HPFH5 [6] (gRNA 3 μg, Cas9 3 μg), 60.3%; with HPFH5 [6] (gRNA 4 μg, Cas9 4 μg), 66.3%.

B3: HPFH5-1: 3′ gRNA targeting the HPFH5 locus, SEQ ID NO: 2, used with Cas9 protein (nucleic acid)
guide: AUUUUUCUUAUUCAAUACCUGUUUUAGAGCUAGAAAUAGCAAGUUAAAAUAAGGCUAGUCCGUUAUCAACUUGAAAAAGUGGCACCGAGUCGGUGCUUUU
modifications: listed as RNA, chemistry not given here
In the case of B3, the “% Single Guide Editing” value was determined as 35.6% with HPFH5 [6] (gRNA 1 μg, Cas9 1 μg); 62.9% in the data set on HPFH5 [6] (gRNA 2 μg, Cas9 2 μg); 72.1% in the data set with HPFH5 [6] (gRNA 3 μg, Cas9 3 μg); 75.7% in the data set on HPFH5 [6] (gRNA 4 μg, Cas9 4 μg).
